# Target: T1, human MRGPR X4 (Homo sapiens, UniProt Q96LA9)
# T1 construct: expressed in transfected cells
# Test: MRGPR X4 antagonist activity, IP-One Gq HTRF assay in stably transfected HEK cells
# Type: cell-based
# Conditions: not given
# Method in brief: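 IC50 comes from HTRF IP-1 accumulation in stably transfected HEK cells expressing human MRGPR X4. Compounds (10 uM top, 1:3 serial, 10 points) were co-incubated with 10 μM bilirubin, 20 μM deoxycholic acid or 100 μM conjugated bilirubin in LiCl-containing buffer, pH 8, for 1 h at 37 °C plus 30 min at room temperature.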
# T1 sequence (Q96LA9 whole entry): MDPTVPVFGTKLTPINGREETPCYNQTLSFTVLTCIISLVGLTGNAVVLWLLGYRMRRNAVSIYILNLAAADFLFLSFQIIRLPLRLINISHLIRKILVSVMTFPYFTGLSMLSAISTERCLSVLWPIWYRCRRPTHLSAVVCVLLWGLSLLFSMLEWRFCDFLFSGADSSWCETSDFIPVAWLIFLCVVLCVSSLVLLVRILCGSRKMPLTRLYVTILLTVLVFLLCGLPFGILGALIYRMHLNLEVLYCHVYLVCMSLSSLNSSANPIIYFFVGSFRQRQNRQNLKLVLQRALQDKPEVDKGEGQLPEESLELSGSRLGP
row,SMILES,IC50
1,"O=C(NCCc1nnc2ccccn12)c1nn(Cc2ccc3ccccc3c2)c2ccc(F)cc12 [Compound 532, N-(2-([1,2,4]triazolo[4,3-a]pyridin-3-yl)ethyl)-5-fluoro-1-(naphthalen-2-ylmethyl)-1H-indazole-3-carboxamide]",< 0.1 µM
2,COc1ccc(Cn2cc(C(=O)NCCc3ccc(Cl)c(F)c3)c3ccccc32)cc1 [Compound 218],1 to 2.5 µM
3,Cc1ccc(Cn2nc(C(=O)NCCc3cnccn3)c3ccccc32)cc1 [Compound 97],1 to 2.5 µM
4,Cc1ccc(Cn2nc(C(=O)NCCc3nc4c(s3)CCCC4)c3ccccc32)cc1 [Compound 28],0.1 to 0.5 µM
5,O=C(NCCc1cnccn1)c1nn(Cc2ccc(Cl)cc2)c2ccccc12 [Compound 348],1 to 2.5 µM
6,CS(=O)(=O)c1ccccc1CNC(=O)c1nn(Cc2ccc(Cl)cc2)c2ccccc12 [Compound 379],> 2.5 µM
7,Cc1[nH]c2ccc(O)cc2c1CCNC(=O)c1nn(Cc2ccc(Cl)cc2)c2ccc(F)cc12 [Compound 534],< 0.1 µM
8,Cc1c(Cn2nc(C(=O)NCCc3nnc4ccccn34)c3ccccc32)cccc1-c1ccccc1 [Compound 449],0.1 to 0.5 µM
9,CC(=O)c1ccc(Cn2cc(C(=O)NCCc3cccnc3)c3ccccc32)cc1 [Compound 191],0.501 to 1 µM
10,Cc1cc(Cn2nc(C(=O)NCCc3nnc4n3CCCCC4)c3ccccc32)ccc1Cl [Compound 7],< 0.1 µM
11,Cc1cccc(CCn2nc(C(=O)NCCc3nnc4ccccn34)c3ccccc32)c1 [Compound 523],1 to 2.5 µM
12,O=C(NCCc1ccc(Cl)c(Cl)c1)c1cn(Cc2ccc(Cl)cc2)c2ccccc12 [Compound 344],> 2.5 µM
13,COc1ccc2nc(Cn3nc(C(=O)NCCc4nnc5ccccn45)c4ccccc43)[nH]c2c1 [Compound 519],0.501 to 1 µM
14,Cn1cc2ccc(CNC(=O)c3nn(Cc4ccc(Cl)cc4)c4ccccc34)cc2n1 [Compound 391],1 to 2.5 µM
15,Cn1nccc1Cn1nc(C(=O)NCCc2nnc3ccccn23)c2ccccc21 [Compound 515],> 2.5 µM
16,O=C(NCCc1cccnc1)c1cn(Cc2cccc(Cl)c2)c2ccccc12 [Compound 195],0.501 to 1 µM
17,COc1ccc(CCNC(=O)c2nn(Cc3ccc(Cl)cc3)c3ccccc23)nc1 [Compound 61],0.1 to 0.5 µM
18,O=C(NCCc1nnc2ccccn12)c1nn(Cc2ccc3ccccc3c2)c2ccccc12 [Compound 432],< 0.1 µM
19,Cc1ccc(Cn2nc(C(=O)NCCc3ccncc3)c3ccccc32)cc1 [Compound 78],0.501 to 1 µM
20,Cc1cccc(CCNC(=O)c2cn(Cc3ccc(Cl)cc3)c3ccccc23)n1 [Compound 153],< 0.1 µM
21,O=C(NCCc1cncnc1)c1nn(Cc2ccc(Cl)cc2)c2ccccc12 [Compound 102],1 to 2.5 µM
22,Cc1cccc2c1c(C(=O)NCCc1nnc3ccccn13)nn2Cc1ccc(Cl)cc1 [Compound 565],< 0.1 µM

row,SMILES,IC50
1,Cc1ccc(Cn2nc(C(=O)NCCc3nnc4n3CCCCC4)c3c(C#N)cccc32)cc1 [Compound 26],< 0.1 µM
2,CC(=O)Nc1cccc(CNC(=O)c2nn(Cc3ccc(Cl)cc3)c3ccccc23)c1 [Compound 377],> 2.5 µM
3,O=C(NCCc1nnc2ccccn12)c1nn(Cc2ccc(Cl)cc2)c2cccc(Br)c12 [Compound 566],0.1 to 0.5 µM
4,Cc1[nH]c2ccccc2c1CCNC(=O)c1nn(Cc2ccc(Cl)cc2)c2ccccc12 [Compound 340],> 2.5 µM
5,Cc1nc(CCNC(=O)c2nn(Cc3ccc(Cl)cc3)c3ccccc23)sc1C [Compound 34],0.1 to 0.5 µM
6,COc1ncccc1CCNC(=O)c1cn(Cc2cccc(F)c2)c2ccccc12 [Compound 203],1 to 2.5 µM
7,O=C(NCCc1ccc(Cl)c(F)c1)c1cn(Cc2ccc(C(F)(F)F)cc2)c2ccccc12 [Compound 209],1 to 2.5 µM
8,CC(C)c1cccc(Cn2nc(C(=O)NCCc3nnc4ccccn34)c3ccccc32)c1 [Compound 456],0.1 to 0.5 µM
9,Cc1ccc(Cn2nc(C(=O)NCCc3ccn(C)n3)c3ccccc32)cc1 [Compound 76],0.501 to 1 µM
10,Cc1cccc(C(F)(F)F)c1Cn1nc(C(=O)NCCc2nnc3ccccn23)c2ccccc21 [Compound 457],> 2.5 µM
11,Cc1cccc(Cn2cc(C(=O)NCCc3cccnc3)c3ccccc32)c1 [Compound 201],1 to 2.5 µM
12,COc1ccccc1CCNC(=O)c1cn(Cc2ccc(Cl)cc2)c2ccccc12 [Compound 177],0.1 to 0.5 µM
13,CC(C)(CNC(=O)c1cn(Cc2cccc(F)c2)c2ccccc12)c1cccnc1 [Compound 213],1 to 2.5 µM
14,Cc1ccc(Cn2nc(C(=O)NCCc3nnc4ccccn34)c3ccccc32)cc1 [Compound 528],< 0.1 µM
15,O=C(NCCC(=O)N1CCCC1)c1nn(Cc2ccc(Cl)cc2)c2ccccc12 [Compound 403],0.1 to 0.5 µM
16,Cc1cccc2nc(Cn3nc(C(=O)NCCc4nnc5ccccn45)c4ccccc43)n(C)c12 [Compound 569],0.1 to 0.5 µM
17,COC1CN(CCn2cc(C(=O)NCCc3ccccn3)c3ccccc32)C1 [Compound 228],> 2.5 µM
18,Cc1ccc(Cn2nc(C(=O)NCCc3nc4c(s3)CCCC4)c3c(C#N)cccc32)cc1 [Compound 60],0.1 to 0.5 µM
19,O=C(NCCc1ccccc1C(F)(F)F)c1cn(Cc2ccc(Cl)cc2)c2ccccc12 [Compound 190],0.501 to 1 µM
20,O=C(NCCc1ccc2c(c1)OCO2)c1nn(Cc2ccc(Cl)cc2)c2ccccc12 [Compound 342],0.501 to 1 µM
21,N#Cc1ccc(CNC(=O)c2nn(Cc3ccc(Cl)cc3)c3ccccc23)nc1 [Compound 404],1 to 2.5 µM
22,O=C(NCCn1nnc2ccccc21)c1nn(Cc2ccc(Cl)cc2)c2ccccc12 [Compound 361],< 0.1 µM

row,SMILES,IC50
1,O=C(NCCc1nnc2ccccn12)c1nn(Cc2csc(-c3ccccc3)n2)c2ccccc12 [Compound 512],0.1 to 0.5 µM
2,COc1ccccc1Cn1nc(C(=O)NCCc2nnc3ccccn23)c2ccccc21 [Compound 430],> 2.5 µM
3,"Cc1ccc2c(c1)c(C(=O)NCCc1nnc3ccccn13)nn2Cc1ccc(Cl)cc1 [Compound 530, N-(2-([1,2,4]triazolo[4,3-a]pyridin-3-yl)ethyl)-1-(4-chlorobenzyl)-5-methyl-1H-indazole-3-carboxamide]",< 0.1 µM
4,Cc1ccc(Cn2cc(C(=O)NCCc3ccccn3)c3ccccc32)cc1 [Compound 158],0.1 to 0.5 µM
5,Cc1cc(Cl)ccc1Cn1nc(C(=O)NCCc2nnc3n2CCCCC3)c2ccccc21 [Compound 11],< 0.1 µM
6,O=C(NCCc1cccc(Cl)c1)c1nn(Cc2ccc(Cl)cc2)c2ccccc12 [Compound 339],0.501 to 1 µM
7,CC(C)(O)c1cn(CCNC(=O)c2nn(Cc3ccc(Cl)cc3)c3ccccc23)nn1 [Compound 140],0.501 to 1 µM
8,O=C(NCCc1nnc2ccccn12)c1nn(Cc2cccc3ccsc23)c2ccccc12 [Compound 548],0.501 to 1 µM
9,"O=C(NCCn1cc(-c2cccnc2)nn1)c1nn(Cc2ccc(Cl)cc2)c2ccccc12 [Compound 144, 1-(4-chlorobenzyl)-N-(2-(4-(pyridin-3-yl)-1H-1,2,3-triazol-1-yl)ethyl)-1H-indazole-3-carboxamide]",0.1 to 0.5 µM
10,O=C(NCCn1cccc1)c1nn(Cc2ccc(Cl)cc2)c2ccccc12 [Compound 349],0.501 to 1 µM
11,Cc1ccc(Cn2nc(C(=O)NCCc3nc4c(s3)CCCC4)c3c(F)cccc32)cc1 [Compound 69],0.1 to 0.5 µM
12,Cc1ccc(CCNC(=O)c2nn(Cc3ccc(C(F)(F)F)cc3)c3ccccc23)cn1 [Compound 49],0.1 to 0.5 µM
13,O=C(NCCc1nnc2ccccn12)c1nn(Cc2ccc3sccc3c2)c2ccc(F)cc12 [Compound 538],< 0.1 µM
14,O=C(NCCc1nnc2ccccn12)c1nn(Cc2nc3ccccc3s2)c2ccccc12 [Compound 497],< 0.1 µM
15,Cc1ccc(Cn2nc(C(=O)NCCc3nnc4n3CCCCC4)c3c(F)cccc32)cc1 [Compound 30],0.1 to 0.5 µM
16,O=C(O)c1nn(Cc2ccc(F)cc2)c2ccccc12 [Compound 331],> 2.5 µM
17,O=C(NCCc1cncc(F)c1)c1cn(Cc2ccc(Cl)cc2)c2ccccc12 [Compound 154],< 0.1 µM
18,O=C(NCCc1cccnc1)c1nn(Cc2ccccc2F)c2ccccc12 [Compound 125],> 2.5 µM
19,O=C(NCCc1nnc2ccccn12)c1nn(Cc2cccc3c2CCO3)c2ccccc12 [Compound 491],0.1 to 0.5 µM
20,O=C(NCCc1nc2c(s1)CCCC2)c1nn(Cc2ccc(Cl)cc2)c2ccccc12 [Compound 29],0.1 to 0.5 µM

# Same assay, conditions: versus 20 μM deoxycholic acid agonist; HEK cells expressing human MRGPR X4; read-out: MRGPRX4 Antagonist Activity
row,SMILES,IC50
1,O=C(NCCc1nnc2ccccn12)c1nn(Cc2cc(-c3ccc4c(c3)OCO4)no2)c2ccccc12 [Compound 500],1 to 2.5 µM
2,O=C(CS(=O)(=O)c1cn(Cc2ccc(Cl)cc2)c2ccccc12)Nc1ccc(Cl)cc1Cl [Compound 251],1 to 2.5 µM
3,"O=C(O)c1nn(Cc2ccc(Cl)cc2Cl)c2ccccc12 [Compound 316, 1-(2,4-dichlorobenzyl)-1H-indazole-3-carboxylic acid]",1 to 2.5 µM
4,O=C(CS(=O)(=O)c1cn(Cc2ccc(Cl)cc2)c2ccccc12)Nc1ccc(Cl)c(Cl)c1 [Compound 249],1 to 2.5 µM
5,COc1ccccc1CCCn1nc(C(=O)NCCc2nnc3ccccn23)c2ccccc21 [Compound 506],> 2.5 µM
6,"O=C(CSc1cn(Cc2ccc(Br)cc2)c2ccccc12)N1CCCC1 [Compound 315, 2-(4(1H-indol-3-yl)thio)-1-(pyrrolidin-1-yl)ethan-1-one]",1 to 2.5 µM
7,Cc1ccc(Cn2nc(C(=O)NCCc3nnc(C4CCOCC4)[nH]3)c3ccccc32)cc1 [Compound 109],1 to 2.5 µM
8,CS(=O)(=O)NCCNC(=O)c1nn(Cc2ccc(Cl)cc2)c2ccccc12 [Compound 384],> 2.5 µM
9,Cc1ccc(C(=O)Cn2nc(C(=O)NCCc3nnc4ccccn34)c3ccccc32)cc1 [Compound 468],1 to 2.5 µM
10,CS(=O)(=O)c1cccc(Cn2nc(C(=O)NCCc3nnc4ccccn34)c3ccccc32)c1 [Compound 510],> 2.5 µM
11,O=C(NS(=O)(=O)c1cccc(OC(F)(F)F)c1)c1nn(Cc2ccc(OC(F)F)cc2)c2ccccc12 [Compound 281],1 to 2.5 µM
12,O=C(NCCOc1ccncc1)c1nn(Cc2ccc(Cl)cc2)c2ccccc12 [Compound 406],1 to 2.5 µM
